Assays:
Experiment in all cases: radiometric filter-binding kinase assay, Kinase HotSpot
Details in all cases: compound 0.5 µM; ATP 10 µM
CDK5 CDK5R1 p25 (human) = CDK5 CDK5R1 p25 (human) (UniProt Q00535+Q15078)
MAPK10 (human) = MAPK10 (human) (UniProt P53779)
MAP3K9 (human) = MAP3K9 (human) (UniProt P80192)
VRK1 (human) = VRK1 (human) (UniProt Q99986)
PRKCH (human) = PRKCH (human) (UniProt P24723)
MAP3K10 (human) = MAP3K10 (human) (UniProt Q02779)
CDK3 CCNE1 (human) = CDK3 CCNE1 (human) (UniProt Q00526+P24864)
TAOK2 (human) = TAOK2 (human) (UniProt Q9UL54)
EPHB4 (human) = EPHB4 (human) (UniProt P54760)
ROCK1 (human) = ROCK1 (human) (UniProt Q13464)
CLK1 (human) = CLK1 (human) (UniProt P49759)
BTK (human) = BTK (human) (UniProt Q06187)
NUAK1 (human) = NUAK1 (human) (UniProt O60285)
[1] = molecular target: JAK1 JH1 catalytic (human) (UniProt P23458)
JAK1 JH1 catalytic (human), sequence (P23458 whole entry, looked up): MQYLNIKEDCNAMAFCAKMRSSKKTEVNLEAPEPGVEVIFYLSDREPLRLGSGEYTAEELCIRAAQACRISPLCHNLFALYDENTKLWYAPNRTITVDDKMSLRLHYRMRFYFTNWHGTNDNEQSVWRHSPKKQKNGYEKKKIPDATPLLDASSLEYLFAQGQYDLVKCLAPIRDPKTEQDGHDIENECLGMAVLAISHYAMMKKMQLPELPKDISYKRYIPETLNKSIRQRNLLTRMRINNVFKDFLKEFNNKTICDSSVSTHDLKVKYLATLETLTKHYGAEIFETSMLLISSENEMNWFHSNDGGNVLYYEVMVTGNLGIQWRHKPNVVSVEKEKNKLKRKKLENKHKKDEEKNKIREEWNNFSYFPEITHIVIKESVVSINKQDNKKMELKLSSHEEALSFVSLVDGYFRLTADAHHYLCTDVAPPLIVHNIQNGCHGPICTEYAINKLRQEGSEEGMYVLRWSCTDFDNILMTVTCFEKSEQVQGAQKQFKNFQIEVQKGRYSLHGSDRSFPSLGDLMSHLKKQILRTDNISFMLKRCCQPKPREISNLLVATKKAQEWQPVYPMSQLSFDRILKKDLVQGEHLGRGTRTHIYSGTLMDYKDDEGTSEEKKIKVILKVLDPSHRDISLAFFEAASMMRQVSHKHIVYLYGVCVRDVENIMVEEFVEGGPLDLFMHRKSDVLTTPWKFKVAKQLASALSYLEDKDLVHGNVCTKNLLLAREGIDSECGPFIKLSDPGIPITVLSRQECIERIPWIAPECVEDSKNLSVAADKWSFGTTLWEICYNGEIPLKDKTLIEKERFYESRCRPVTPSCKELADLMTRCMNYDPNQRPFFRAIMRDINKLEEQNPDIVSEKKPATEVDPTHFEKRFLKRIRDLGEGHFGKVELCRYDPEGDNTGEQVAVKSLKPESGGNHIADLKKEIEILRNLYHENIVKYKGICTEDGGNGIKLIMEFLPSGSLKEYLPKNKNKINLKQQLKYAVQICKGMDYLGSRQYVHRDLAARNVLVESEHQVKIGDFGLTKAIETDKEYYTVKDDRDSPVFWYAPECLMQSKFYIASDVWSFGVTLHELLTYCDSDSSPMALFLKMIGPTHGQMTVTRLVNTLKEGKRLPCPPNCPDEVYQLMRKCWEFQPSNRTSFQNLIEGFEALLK

PIM1 (human) = PIM1 (human) (UniProt P11309)
MYLK (human) = MYLK (human) (UniProt Q15746)
TGFBR1 (human) = TGFBR1 (human) (UniProt P36897)
FLT1 (human) = FLT1 (human) (UniProt P17948)
NEK4 (human) = NEK4 (human) (UniProt P51957)
CDK4 CCND1 (human) = CDK4 CCND1 (human) (UniProt P24385+P11802)
CDK4 CCND1 (human), sequence (P11802 whole entry, looked up): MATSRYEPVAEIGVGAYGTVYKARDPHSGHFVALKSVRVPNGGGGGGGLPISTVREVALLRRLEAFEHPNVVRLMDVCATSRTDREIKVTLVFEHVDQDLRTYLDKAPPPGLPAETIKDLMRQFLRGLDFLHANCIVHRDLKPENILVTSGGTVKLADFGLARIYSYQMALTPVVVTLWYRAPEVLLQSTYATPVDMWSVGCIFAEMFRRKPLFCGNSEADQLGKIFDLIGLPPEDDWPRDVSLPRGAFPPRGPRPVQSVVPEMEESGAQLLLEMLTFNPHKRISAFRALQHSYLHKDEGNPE
CDK4 CCND1 (human), sequence (P24385 whole entry, looked up): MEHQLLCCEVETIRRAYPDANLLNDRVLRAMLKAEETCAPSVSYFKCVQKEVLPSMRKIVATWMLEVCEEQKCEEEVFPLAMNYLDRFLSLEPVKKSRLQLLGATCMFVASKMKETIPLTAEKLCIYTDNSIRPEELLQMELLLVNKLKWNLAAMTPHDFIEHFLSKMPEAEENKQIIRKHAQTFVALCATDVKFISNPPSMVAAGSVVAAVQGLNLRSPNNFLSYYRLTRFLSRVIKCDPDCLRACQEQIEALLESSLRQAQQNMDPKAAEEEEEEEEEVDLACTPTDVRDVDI

GSG2 (human) = GSG2 (human) (UniProt Q8TF76)
OXSR1 (human) = OXSR1 (human) (UniProt O95747)
RPS6KB2 (human) = RPS6KB2 (human) (UniProt Q9UBS0)
CAMK2G (human) = CAMK2G (human) (UniProt Q13555)
DCLK2 (human) = DCLK2 (human) (UniProt Q8N568)
DCLK2 (human), sequence (Q8N568 whole entry, looked up): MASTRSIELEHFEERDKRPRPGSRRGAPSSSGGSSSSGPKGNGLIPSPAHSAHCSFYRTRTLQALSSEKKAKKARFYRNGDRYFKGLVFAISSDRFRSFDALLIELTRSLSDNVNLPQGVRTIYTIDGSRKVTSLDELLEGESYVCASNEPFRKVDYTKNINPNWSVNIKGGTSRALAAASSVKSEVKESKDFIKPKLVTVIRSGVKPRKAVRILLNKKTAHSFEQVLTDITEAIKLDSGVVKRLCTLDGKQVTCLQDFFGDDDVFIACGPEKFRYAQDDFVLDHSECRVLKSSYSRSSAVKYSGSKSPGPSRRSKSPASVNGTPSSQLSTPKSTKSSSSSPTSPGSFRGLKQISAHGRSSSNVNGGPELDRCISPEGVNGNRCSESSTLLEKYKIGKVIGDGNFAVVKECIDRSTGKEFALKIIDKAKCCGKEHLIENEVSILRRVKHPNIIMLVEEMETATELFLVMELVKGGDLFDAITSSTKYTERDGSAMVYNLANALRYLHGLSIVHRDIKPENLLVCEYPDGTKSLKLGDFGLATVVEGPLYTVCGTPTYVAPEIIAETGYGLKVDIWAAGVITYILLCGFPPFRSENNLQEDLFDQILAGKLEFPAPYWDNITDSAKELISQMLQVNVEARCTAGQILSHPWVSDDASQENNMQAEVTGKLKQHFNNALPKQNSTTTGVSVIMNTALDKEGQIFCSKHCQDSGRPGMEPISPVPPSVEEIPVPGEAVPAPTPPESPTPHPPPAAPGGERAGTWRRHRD

STK4 (human) = STK4 (human) (UniProt Q13043)
CAMK2A (human) = CAMK2A (human) (UniProt Q9UQM7)
TEK (human) = TEK (human) (UniProt Q02763)
PNCK (human) = PNCK (human) (UniProt Q6P2M8)
CAMK2D (human) = CAMK2D (human) (UniProt Q13557)
TBK1 (human) = TBK1 (human) (UniProt Q9UHD2)
MAP4K2 (human) = MAP4K2 (human) (UniProt Q12851)
MAPK1 (human) = MAPK1 (human) (UniProt P28482)
MAPKAPK5 (human) = MAPKAPK5 (human) (UniProt Q8IW41)
MAPKAPK5 (human), sequence (Q8IW41 whole entry, looked up): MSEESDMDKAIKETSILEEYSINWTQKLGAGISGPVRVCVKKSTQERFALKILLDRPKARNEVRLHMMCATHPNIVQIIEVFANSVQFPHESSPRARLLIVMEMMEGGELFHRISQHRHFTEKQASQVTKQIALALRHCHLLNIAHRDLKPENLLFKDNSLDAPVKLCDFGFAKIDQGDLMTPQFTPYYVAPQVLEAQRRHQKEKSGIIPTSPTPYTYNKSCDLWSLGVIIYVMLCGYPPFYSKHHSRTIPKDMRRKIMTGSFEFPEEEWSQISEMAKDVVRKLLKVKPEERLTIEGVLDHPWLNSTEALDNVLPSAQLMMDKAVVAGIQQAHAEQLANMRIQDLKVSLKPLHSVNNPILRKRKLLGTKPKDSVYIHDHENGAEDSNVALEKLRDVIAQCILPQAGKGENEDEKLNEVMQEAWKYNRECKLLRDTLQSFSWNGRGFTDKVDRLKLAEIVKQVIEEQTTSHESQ

HCK (human) = HCK (human) (UniProt P08631)
HCK (human), sequence (P08631 whole entry, looked up): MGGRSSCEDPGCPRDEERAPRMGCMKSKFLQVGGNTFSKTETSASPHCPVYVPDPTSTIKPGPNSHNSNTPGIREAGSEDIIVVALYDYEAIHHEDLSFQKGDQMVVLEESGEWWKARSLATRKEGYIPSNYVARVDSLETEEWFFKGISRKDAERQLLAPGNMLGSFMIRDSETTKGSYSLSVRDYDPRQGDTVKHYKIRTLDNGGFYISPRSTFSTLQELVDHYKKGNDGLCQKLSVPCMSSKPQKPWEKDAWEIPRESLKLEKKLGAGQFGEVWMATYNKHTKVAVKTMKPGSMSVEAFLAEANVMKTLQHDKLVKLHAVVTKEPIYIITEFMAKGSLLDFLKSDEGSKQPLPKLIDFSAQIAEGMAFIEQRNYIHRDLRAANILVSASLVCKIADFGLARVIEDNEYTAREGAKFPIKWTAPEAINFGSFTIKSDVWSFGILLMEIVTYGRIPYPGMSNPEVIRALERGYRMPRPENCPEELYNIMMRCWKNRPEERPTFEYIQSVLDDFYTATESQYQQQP

CAMK2B (human) = CAMK2B (human) (UniProt Q13554)
MAP3K11 (human) = MAP3K11 (human) (UniProt Q16584)
CDK6 CCND3 (human) = CDK6 CCND3 (human) (UniProt P30281+Q00534)
LTK (human) = LTK (human) (UniProt P29376)
CAMK1G (human) = CAMK1G (human) (UniProt Q96NX5)
MARK1 (human) = MARK1 (human) (UniProt Q9P0L2)
MARK1 (human), sequence (Q9P0L2 whole entry, looked up): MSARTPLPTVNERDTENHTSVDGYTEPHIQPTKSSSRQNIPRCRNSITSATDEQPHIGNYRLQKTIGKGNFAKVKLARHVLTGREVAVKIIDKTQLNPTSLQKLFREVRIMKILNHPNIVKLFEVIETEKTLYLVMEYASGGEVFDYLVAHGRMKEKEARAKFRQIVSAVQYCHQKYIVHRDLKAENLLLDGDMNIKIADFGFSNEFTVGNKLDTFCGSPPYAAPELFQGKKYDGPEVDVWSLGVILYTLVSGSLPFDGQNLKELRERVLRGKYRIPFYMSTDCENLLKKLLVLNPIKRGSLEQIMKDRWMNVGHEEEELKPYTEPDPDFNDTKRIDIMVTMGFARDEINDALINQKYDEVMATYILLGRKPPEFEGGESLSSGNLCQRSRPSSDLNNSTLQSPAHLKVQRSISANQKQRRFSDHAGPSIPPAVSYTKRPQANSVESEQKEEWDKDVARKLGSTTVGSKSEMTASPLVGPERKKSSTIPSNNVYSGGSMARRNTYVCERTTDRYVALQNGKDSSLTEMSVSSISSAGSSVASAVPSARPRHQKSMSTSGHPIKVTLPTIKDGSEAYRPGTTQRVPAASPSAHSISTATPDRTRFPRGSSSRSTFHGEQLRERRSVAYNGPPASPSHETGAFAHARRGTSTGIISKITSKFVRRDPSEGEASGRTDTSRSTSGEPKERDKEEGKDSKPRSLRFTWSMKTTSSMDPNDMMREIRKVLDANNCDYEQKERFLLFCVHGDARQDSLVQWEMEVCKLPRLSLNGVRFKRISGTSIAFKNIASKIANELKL

BRSK2 (human) = BRSK2 (human) (UniProt Q8IWQ3)

PRKCH (human), sequence (P24723 whole entry, looked up): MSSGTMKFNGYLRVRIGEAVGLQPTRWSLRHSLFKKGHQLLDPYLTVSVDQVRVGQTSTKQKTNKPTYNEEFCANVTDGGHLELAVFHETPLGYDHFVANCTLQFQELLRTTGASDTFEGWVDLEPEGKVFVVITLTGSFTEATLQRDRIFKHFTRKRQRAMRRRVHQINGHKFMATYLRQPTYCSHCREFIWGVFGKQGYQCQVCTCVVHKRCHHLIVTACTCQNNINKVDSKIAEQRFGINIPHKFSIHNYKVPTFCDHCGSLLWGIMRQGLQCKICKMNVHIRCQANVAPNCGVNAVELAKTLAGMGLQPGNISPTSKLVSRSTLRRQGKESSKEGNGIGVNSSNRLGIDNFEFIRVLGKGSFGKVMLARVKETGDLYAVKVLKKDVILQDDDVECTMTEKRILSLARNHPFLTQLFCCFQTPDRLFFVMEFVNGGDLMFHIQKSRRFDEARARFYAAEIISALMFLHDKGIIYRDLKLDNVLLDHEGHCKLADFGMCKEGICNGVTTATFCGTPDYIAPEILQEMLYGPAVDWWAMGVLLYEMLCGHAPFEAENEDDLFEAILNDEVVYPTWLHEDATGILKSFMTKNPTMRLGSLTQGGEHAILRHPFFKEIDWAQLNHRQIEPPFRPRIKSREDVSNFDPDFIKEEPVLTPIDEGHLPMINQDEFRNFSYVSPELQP

c1ccc(-c2cnc(Nc3ccc(OCCN4CCCC4)cc3)s2)cc1
residual activity (CDK5 CDK5R1 p25 (human)): 80.7% | residual activity (MAPK10 (human)): 92.9% | residual activity (MAP3K9 (human)): 94.3% | residual activity (VRK1 (human)): 89.1% | residual activity (PRKCH (human)): 88.2% | residual activity (MAP3K10 (human)): 95.7% | residual activity (CDK3 CCNE1 (human)): 97.6% | residual activity (TAOK2 (human)): 70.7% | residual activity (EPHB4 (human)): 91.9% | residual activity (ROCK1 (human)): 102% | residual activity (CLK1 (human)): 89.4% | residual activity (BTK (human)): 101% | residual activity (NUAK1 (human)): 56.4% | residual activity [1]: 101% | residual activity (PIM1 (human)): 100% | residual activity (MYLK (human)): 96.9% | residual activity (TGFBR1 (human)): 97% | residual activity (FLT1 (human)): 74.5% | residual activity (NEK4 (human)): 96.1% | residual activity (CDK4 CCND1 (human)): 61.2% | residual activity (GSG2 (human)): 106% | residual activity (OXSR1 (human)): 85.3% | residual activity (RPS6KB2 (human)): 92.7% | residual activity (CAMK2G (human)): 66.9% | residual activity (DCLK2 (human)): 87.6% | residual activity (STK4 (human)): 102% | residual activity (CAMK2A (human)): 62.9% | residual activity (TEK (human)): 102% | residual activity (PNCK (human)): 99.8% | residual activity (CAMK2D (human)): 48.2% | residual activity (TBK1 (human)): 87.1% | residual activity (MAP4K2 (human)): 113% | residual activity (MAPK1 (human)): 83.4% | residual activity (MAPKAPK5 (human)): 83.4% | residual activity (HCK (human)): 98.6% | residual activity (CAMK2B (human)): 84.2% | residual activity (MAP3K11 (human)): 84.4% | residual activity (CDK6 CCND3 (human)): 20.1% | residual activity (LTK (human)): 93.8% | residual activity (CAMK1G (human)): 101% | residual activity (MARK1 (human)): 90.1% | residual activity (BRSK2 (human)): 79.3%

Source: the kinase profiling compilation of Christmann-Franck et al. (2016)
